What was measured:
[1] = system: harmful plants such as Stellaria media, Lolium multiforum, Amaranthus retroflexus, Sinapis alba, Avena sativa and Setaria viridis; test: Pre-emergence effect on weeds (greenhouse pot test); format: in vivo; conditions: application rate of 1 kg or less of active ingredient per hectare; scored after 3 to 4 weeks by comparison with untreated controls
Excerpt: Seeds or rhizome pieces of monocotyledonous and dicotyledonous weed plants were placed in sandy loam in plastic pots and covered with soil. The compounds according to the invention, which were formulated in the form of wettable powders or emulsion concentrates, were then applied to the surface of the soil cover as aqueous suspension or emulsion at various dosages with an application rate of 600 to 800 l of water per ha (converted).
After the treatment, the pots were placed into a greenhouse and kept under good growth conditions for the weeds. The plant or emergence damage was scored visually after the test plants have emerged after an experimental time of 3 to 4 weeks by comparison with untreated controls.

[2] = system: harmful plants such as Sinapis alba, Echinochloa crus-galli, Lolium multiflorum, Stellaria media, Cyperus iria, Amaranthus retroflexus, Setaria viridis, Avena …; test: Post-emergence effect on weeds (greenhouse pot test); format: in vivo; conditions: application rate of 2 kg or less of active ingredient per hectare; treated in the three-leaf stage; scored after approx. 3 to 4 weeks by comparison with untreated controls

Row | Compound | pre-emergence control of harmful plants (plant or emergence damage scored visually) [1] | herbicidal post-emergence activity against harmful plants (scored visually) [2]
1 | CCc1nc(N)nc(N[C@@H]2CCCc3c(C)cc(C)cc32)n1 [Compound 8.38] | very good pre-emergence control | very good herbicidal post-emergence activity
2 | CCc1ccc2c(c1)[C@H](Nc1nc(C)nc(N)n1)CC2 [Compound 8.246] | very good pre-emergence control | very good herbicidal post-emergence activity
3 | Cc1cc(C)c2c(c1)[C@H](Nc1nc(N)nc(C(C)C)n1)CCC2 [Compound 8.252] | very good pre-emergence control | very good herbicidal post-emergence activity
4 | Cc1ccc2c(c1)[C@H](Nc1nc(N)nc([C@@H](C)Cl)n1)[C@@H](C)CC2 [Compound 2.28] | very good pre-emergence control | very good herbicidal post-emergence activity
5 | CCCc1nc(N)nc(N[C@@H]2CCc3ccc(C)cc32)n1 [Compound 8.48] | very good pre-emergence control | very good herbicidal post-emergence activity
6 | CCCc1nc(N)nc(N[C@@H]2CCc3ccc(CC)cc32)n1 [Compound 8.249] | very good pre-emergence control | very good herbicidal post-emergence activity
7 | Cc1ccc2c(c1)[C@H](Nc1nc(C)nc(N)n1)CCC2 [Compound 8.12] | very good pre-emergence control | very good herbicidal post-emergence activity
8 | Nc1nc(CCl)nc(N[C@@H]2CCCc3ccccc32)n1 [Compound 8.117] | very good pre-emergence control | very good herbicidal post-emergence activity
9 | Cc1ccc2c(c1)[C@H](Nc1nc(N)nc(CCSC(F)(F)F)n1)[C@@H](C)C2 [Compound 7.238] | very good pre-emergence control | very good herbicidal post-emergence activity
10 | Cc1ccc2c(c1)[C@H](Nc1nc(N)nc(C(F)(F)F)n1)[C@@H](C)C2 [Compound 7.240] | very good pre-emergence control | very good herbicidal post-emergence activity
11 | CCc1ccc2c(c1)[C@H](Nc1nc(N)nc(CC)n1)CC2 [Compound 8.248] | very good pre-emergence control | very good herbicidal post-emergence activity
12 | Nc1nc(N[C@@H]2CCCc3ccccc32)nc(C2(Cl)CC2)n1 [Compound 8.187] | very good pre-emergence control | very good herbicidal post-emergence activity
13 | CCCCc1nc(N)nc(N[C@H]2c3cc(C)ccc3C[C@@H]2C)n1 [Compound 9.66] | very good pre-emergence control | very good herbicidal post-emergence activity
14 | C[C@@H](F)c1nc(N)nc(N[C@@H]2CCc3ccccc32)n1 [Compound 1.1] | very good pre-emergence control | very good herbicidal post-emergence activity
15 | CC(C)(F)c1nc(N)nc(N[C@@H]2CCOc3c(F)cccc32)n1 [Compound 8.237] | very good pre-emergence control | very good herbicidal post-emergence activity
16 | Cc1ccc2c(c1)[C@H](Nc1nc(N)nc([C@@H](C)F)n1)CC2 [Compound 1.2] | very good pre-emergence control | very good herbicidal post-emergence activity

Row | Compound | pre-emergence control of harmful plants (plant or emergence damage scored visually) [1] | herbicidal post-emergence activity against harmful plants (scored visually) [2]
17 | CCC(F)c1nc(N)nc(N[C@@H]2CCc3ccc(F)cc32)n1 (mixture of isomers) [Compound 10.38] | very good pre-emergence control | very good herbicidal post-emergence activity
18 | Cc1ccc2c(c1)[C@H](Nc1nc(N)nc([C@@H](C)Cl)n1)[C@@H](C)C2 [Compound 2.25] | very good pre-emergence control | very good herbicidal post-emergence activity
19 | COCc1nc(N)nc(N[C@@H]2CCc3ccccc32)n1 [Compound 8.233] | very good pre-emergence control | very good herbicidal post-emergence activity
20 | Cc1cc2c(cc1C)[C@H](Nc1nc(N)nc([C@H](C)F)n1)CC2 [Compound 3.7] | very good pre-emergence control | very good herbicidal post-emergence activity
21 | CC(C)c1nc(N)nc(N[C@H]2c3ccccc3C[C@@H]2C)n1 [Compound 7.24] | very good pre-emergence control | very good herbicidal post-emergence activity
22 | C[C@H]1Cc2ccccc2[C@@H]1Nc1nc(N)nc(C(F)F)n1 [Compound 7.244] | very good pre-emergence control | very good herbicidal post-emergence activity
23 | CCCc1nc(N)nc(N[C@@H]2CCCc3ccc(C)cc32)n1 [Compound 8.58] | very good pre-emergence control | very good herbicidal post-emergence activity
24 | CCCC(F)c1nc(N)nc(NC2CCOc3c(C)cc(C)cc32)n1 (mixture of isomers) [Compound 10.67] | very good pre-emergence control | very good herbicidal post-emergence activity
25 | COCc1nc(N)nc(N[C@H]2c3ccccc3C[C@@H]2C)n1 [Compound 7.70] | very good pre-emergence control | very good herbicidal post-emergence activity
26 | CCc1nc(N)nc(N[C@@H]2CCOc3c(F)cccc32)n1 [Compound 8.239] | very good pre-emergence control | very good herbicidal post-emergence activity
27 | COc1ccc2c(c1)[C@H](Nc1nc(N)nc([C@@H](C)F)n1)CC2 [Compound 1.69] | very good pre-emergence control | very good herbicidal post-emergence activity
28 | Cc1ccc2c(c1C)OCC[C@H]2Nc1nc(N)nc([C@@H](C)F)n1 [Compound 1.66] | very good pre-emergence control | very good herbicidal post-emergence activity
29 | C[C@H]1Cc2ccccc2[C@@H]1Nc1nc(N)nc(C(C)(C)F)n1 [Compound 7.228] | very good pre-emergence control | very good herbicidal post-emergence activity
30 | CCC(F)c1nc(N)nc(N[C@@H]2CCc3ccc(C)cc32)n1 (stereo partly shown) [Compound 10.37] | very good pre-emergence control | very good herbicidal post-emergence activity
31 | C[C@@H](F)c1nc(N)nc(N[C@@H]2CCCc3ccccc32)n1 [Compound 1.11] | very good pre-emergence control | very good herbicidal post-emergence activity
32 | Cc1ccc2c(c1)[C@H](Nc1nc(N)nc(C(C)(C)F)n1)CCO2 [Compound 8.215] | very good pre-emergence control | very good herbicidal post-emergence activity
